Assay results as given in US20080200556A1, “Amine Compounds And Inhibiting Neurotrasmitter Reuptake” (MAYO FOUNDATION FOR MEDICAL EDUCATION AND RESEARCH, priority 2004, published 2008).
pKd: −log10 of the molar value.

Tests used:
[1] = target: human dopamine transporter (hDAT) (Homo sapiens, UniProt Q01959); experiment: biochemical
Description: (§1) The cells were incubated in 10% CO2, 90% air at 37° C. and 100% humidity. The hNET cell cultures contained 250 μg/mL geneticin sulfate. The cells were grown to 70-80% confluency prior to harvesting.
(§2) Cell membranes containing hSERT, hNET, or hDAT were prepared from the cell lines to assay ligand binding for each of the transporters. […] The washed cells were incubated for 5 minutes at 37° C. in 10 mL solution 1 containing 100 mM ethylene glycol-bis N,N,N′,N′-tetraacetic acid (EGTA). The cells were then scraped from the flask surface with a rubber spatula, placed into a centrifuge tube, and collected by centrifugation at 1000×g for 5 minutes at 4° C. The resulting supernatant was discarded, and the cell pellet was resuspended in 0.5 to 1.0 mL of the appropriate binding buffer (described below). The resuspended cell pellet was homogenized using a Polytron for 10 seconds at setting 6. The resulting homogenate was centrifuged at about 36,000×g for 10 minutes at 4° C. The supernatant was discarded, and the pellet was resuspended in the same volume of the appropriate binding buffer and centrifuged again. […]
To assess binding to the cloned HDAT, cells expressing HDAT were homogenized in 50 mM Tris-HCl with 120 mM NaCl (pH 7.4). […] Radioactivity was measured with a Beckman liquid scintillation counter (LS 5000TD). […]

[2] = test system: Male Sprague-Dawley rats; experiment: Forced swim test in rats; assay type: in vivo, rat; conditions: i.p., imipramine 15 mg/kg, PRC025 10 mg/kg; for Time immobile (Counts/5 min) / Time swimming (Counts/5 min): mean ±SEM, *P < 0.05 vs. saline
Description: When rats are placed in a cylinder of water from which they cannot escape, they will remain immobile in the water for the majority of the test.
Water was changed between trials, and the procedure involved a pretest and a 5-minute test separated by 24 hours. During the pretest, rats (adapted to the experimental room for no less than 1 hour) were placed in the cylinder for 15 minutes. Following this initial exposure, the rats were dried with towels and transferred to a “drying cage” situated under a warming lamp. […] The following day, rats were transferred to the experimental room and acclimated for at least 1 hour.
The rat was considered immobile when floating motionless or making only those movements necessary to keep its head above the surface of the water. Scores for each behavior (swimming or immobility) were expressed as total counts per […]. Statistical analysis was performed using ANOVA followed by the Tukey test for post-hoc comparisons.

[3] = target: T1, human serotonin transporter (hSERT) (Homo sapiens, UniProt P31645)
Description: as §1, §2
(§3) Radioligand binding assays for the indicated transporters were performed as follows. […] Radioactivity was measured with a Beckman liquid scintillation counter (LS 5000TD). […]

[4] = target: T1, human serotonin transporter (hSERT); experiment: biochemical
Description: as §1, §2, §3

[5] = test system: Male C57B1/6J mice; experiment: Tail suspension test in mice; assay type: in vivo, mouse; conditions: PRC025 10 mg/kg; for Time immobile (Counts/6 min) / Time mobile (Counts/6 min): i.p. 30 minutes before testing, imipramine 15 mg/kg (table), mean ±SEM, *P < 0.05 vs. saline
Excerpt: When mice are suspended by their tail, there is an initial period of agitation, followed by immobility. This test identifies antidepressant compounds, which decrease the duration of immobility.
Mice were then individually suspended by their tails 35 cm above the tabletop using an adhesive tape placed 1 cm from the tip of the tail. Behavior was scored every 5 seconds throughout the 6-minute test as either mobile or immobile. Mice were considered immobile only when hanging passively and completely motionless. Scores for each behavior were expressed as total counts per […]. Statistical analysis was performed using ANOVA followed by the Tukey test for post-hoc comparisons.

T1 sequence (P31645 whole entry): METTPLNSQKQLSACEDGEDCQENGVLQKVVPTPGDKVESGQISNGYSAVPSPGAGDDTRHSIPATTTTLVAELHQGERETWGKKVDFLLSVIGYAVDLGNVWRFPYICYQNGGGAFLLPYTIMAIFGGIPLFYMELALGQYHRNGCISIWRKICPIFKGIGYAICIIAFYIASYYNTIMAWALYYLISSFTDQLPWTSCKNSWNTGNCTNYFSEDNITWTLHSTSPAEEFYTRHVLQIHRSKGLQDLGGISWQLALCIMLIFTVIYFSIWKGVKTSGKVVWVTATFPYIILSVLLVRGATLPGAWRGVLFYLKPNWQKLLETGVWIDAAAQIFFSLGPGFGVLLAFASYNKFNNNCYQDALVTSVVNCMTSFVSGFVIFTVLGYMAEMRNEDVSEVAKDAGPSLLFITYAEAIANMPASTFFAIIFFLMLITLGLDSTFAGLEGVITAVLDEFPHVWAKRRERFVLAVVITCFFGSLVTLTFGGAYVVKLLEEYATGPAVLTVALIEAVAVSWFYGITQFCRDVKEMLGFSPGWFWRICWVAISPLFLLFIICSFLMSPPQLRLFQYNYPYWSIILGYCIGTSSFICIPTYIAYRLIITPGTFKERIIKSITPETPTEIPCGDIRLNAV

SMILES	pKd [1]	Time immobile (Counts/5 min) [2]	Time swimming (Counts/5 min) [2]	binding to hSERT (in words) [3]	pKd [4]	Time immobile (Counts/6 min) [5]	Time mobile (Counts/6 min) [5]	swimming behavior versus saline (in words) [2]	mobile behavior versus saline (in words) ([5]; i.p., imipramine)
CNCC(c1ccc2ccccc2c1)C(O)c1ccccc1 (racemic) [Compound A, (2RS,3RS)-N-methyl-3-hydroxy-2-(2′-naphthyl)-3-phenylpropylamine]	6.87								
CN(C)CC(c1ccc2ccccc2c1)C(O)C1CCCCC1 (racemic) [PRC025, (2RS,3SR)-N,N-dimethyl-3-cyclohexyl-3-hydroxy-2-(2′-naphthyl)propylamine]	7.27	28 ± 3* Counts/5 min	30 ± 3* Counts/5 min	strong binding	8.39	12 ± 3* Counts/6 min	60 ± 3* Counts/6 min		
CN(C)CCCN1c2ccccc2CCc2ccccc21 [Imipramine, imipramine]		23 ± 3* Counts/5 min	37 ± 3* Counts/5 min			21 ± 4* Counts/6 min	51 ± 4* Counts/6 min	statistically more swimming behavior than rats treated with saline	statistically more mobile behavior than mice treated with saline
